Data reported in PubChem BioAssay (NCI).
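48-hour exposure; five concentrations; linearly interpolated endpoints. Here, GI50 denotes the concentration required for 50% inhibition of growth. TGI: concentration producing complete growth inhibition.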

Legend:
Experiment in all cases: growth of human tumour cells (NCI), 48 h
ACHN renal = system: ACHN renal
SN12C renal = system: SN12C renal
SNB-75 CNS = system: SNB-75 CNS
NCI-H460 lung = system: NCI-H460 lung
LOX IMVI melanoma = system: LOX IMVI melanoma
A498 renal = system: A498 renal
RPMI-8226 leukemia = system: RPMI-8226 leukemia
HCT-15 colon = system: HCT-15 colon
MOLT-4 leukemia = system: MOLT-4 leukemia
HOP-62 NSCLC = system: HOP-62 NSCLC
HS 578T breast = system: HS 578T breast
OVCAR-8 ovarian = system: OVCAR-8 ovarian
M14 melanoma = system: M14 melanoma
OVCAR-4 ovarian = system: OVCAR-4 ovarian
SF-295 CNS = system: SF-295 CNS
SK-MEL-28 melanoma = system: SK-MEL-28 melanoma
MALME-3M melanoma = system: MALME-3M melanoma
HT29 colon = system: HT29 colon
HL-60(TB) leukemia = system: HL-60(TB) leukemia
EKVX NSCLC = system: EKVX NSCLC
HCC-2998 colon = system: HCC-2998 colon
RXF 393 renal = system: RXF 393 renal
T-47D breast = system: T-47D breast
NCI-H23 lung = system: NCI-H23 lung
BT-549 breast = system: BT-549 breast
OVCAR-3 ovarian = system: OVCAR-3 ovarian
MDA-MB-435 = system: MDA-MB-435
786-0 renal = system: 786-0 renal
SK-MEL-2 melanoma = system: SK-MEL-2 melanoma
SK-MEL-5 melanoma = system: SK-MEL-5 melanoma
SF-268 CNS = system: SF-268 CNS
MCF7 breast = system: MCF7 breast
UACC-62 melanoma = system: UACC-62 melanoma
KM12 colon = system: KM12 colon
A549 NSCLC = system: A549 NSCLC
OVCAR-5 ovarian = system: OVCAR-5 ovarian
SNB-19 CNS = system: SNB-19 CNS
UO-31 renal = system: UO-31 renal
PC-3 prostate = system: PC-3 prostate
MDA-MB-231 breast = system: MDA-MB-231 breast
SR leukemia = system: SR leukemia
TK-10 renal = system: TK-10 renal
HCT-116 colon = system: HCT-116 colon
IGROV1 ovarian = system: IGROV1 ovarian
SF-539 CNS = system: SF-539 CNS
K-562 leukemia = system: K-562 leukemia
UACC-257 melanoma = system: UACC-257 melanoma
NCI-H522 lung = system: NCI-H522 lung
CCRF-CEM leukemia = system: CCRF-CEM leukemia
NCI-H226 lung = system: NCI-H226 lung
HOP-92 NSCLC = system: HOP-92 NSCLC
MDA-MB-468 breast = system: MDA-MB-468 breast
CAKI-1 renal = system: CAKI-1 renal
SW-620 colon = system: SW-620 colon
NCI/ADR-RES ovarian = system: NCI/ADR-RES ovarian
U251 CNS = system: U251 CNS
DU-145 prostate = system: DU-145 prostate
COLO 205 colon = system: COLO 205 colon

## O=C(NO)c1ccc(-c2nc3ccc4[nH]ncc4c3c3c2CCCC3)cc1
ACHN renal
  GI50: 193 nM
  TGI: 5960 nM
SN12C renal
  GI50: 281 nM
  TGI: 3390 nM
SNB-75 CNS
  GI50: 207 nM
  TGI: 875 nM
NCI-H460 lung
  GI50: 486 nM
  TGI: 2490 nM
LOX IMVI melanoma
  GI50: 306 nM
  TGI: 1320 nM
A498 renal
  GI50: 254 nM
  TGI: 2640 nM
RPMI-8226 leukemia
  GI50: 1650 nM
  TGI: > 44600 nM
HCT-15 colon
  GI50: 250 nM
  TGI: 8570 nM
MOLT-4 leukemia
  GI50: 244 nM
  TGI: 942 nM
HOP-62 NSCLC
  GI50: 253 nM
  TGI: 5210 nM
HS 578T breast
  GI50: 191 nM
  TGI: 1300 nM
OVCAR-8 ovarian
  GI50: 300 nM
  TGI: 13500 nM
M14 melanoma
  GI50: 415 nM
  TGI: 1780 nM
OVCAR-4 ovarian
  GI50: 706 nM
  TGI: 6380 nM
SF-295 CNS
  GI50: 880 nM
  TGI: 9760 nM
SK-MEL-28 melanoma
  GI50: 299 nM
  TGI: 1030 nM
MALME-3M melanoma
  GI50: 513 nM
  TGI: 1730 nM
HT29 colon
  GI50: 455 nM
  TGI: 9840 nM
HL-60(TB) leukemia
  GI50: 339 nM
  TGI: 2980 nM
EKVX NSCLC
  GI50: 480 nM
  TGI: 3260 nM
HCC-2998 colon
  GI50: 300 nM
  TGI: 1390 nM
RXF 393 renal
  GI50: 103 nM
  TGI: 508 nM
T-47D breast
  GI50: 196 nM
  TGI: 1750 nM
NCI-H23 lung
  GI50: 316 nM
  TGI: 1180 nM
BT-549 breast
  GI50: 187 nM
  TGI: 680 nM
OVCAR-3 ovarian
  GI50: 377 nM
  TGI: 11000 nM
MDA-MB-435
  GI50: 340 nM
  TGI: 1490 nM
786-0 renal
  GI50: 307 nM
  TGI: 1210 nM
SK-MEL-2 melanoma
  GI50: 247 nM
  TGI: 792 nM
SK-MEL-5 melanoma
  GI50: 240 nM
  TGI: 1020 nM
SF-268 CNS
  GI50: 298 nM
  TGI: 1600 nM
MCF7 breast
  GI50: 344 nM
  TGI: 3570 nM
UACC-62 melanoma
  GI50: 237 nM
  TGI: 1450 nM
KM12 colon
  GI50: 391 nM
  TGI: 13700 nM
A549 NSCLC
  GI50: 671 nM
  TGI: > 100000 nM
OVCAR-5 ovarian
  GI50: 479 nM
  TGI: 3930 nM
SNB-19 CNS
  GI50: 288 nM
  TGI: 1740 nM
UO-31 renal
  GI50: 599 nM
  TGI: 8480 nM
PC-3 prostate
  GI50: 424 nM
  TGI: > 67200 nM
MDA-MB-231 breast
  GI50: 350 nM
  TGI: 1490 nM
SR leukemia
  GI50: 117 nM
TK-10 renal
  GI50: 261 nM
  TGI: 10400 nM
HCT-116 colon
  GI50: 119 nM
  TGI: 33800 nM
IGROV1 ovarian
  GI50: 318 nM
  TGI: 3110 nM
SF-539 CNS
  GI50: 168 nM
  TGI: 455 nM
K-562 leukemia
  GI50: 495 nM
  TGI: > 100000 nM
UACC-257 melanoma
  GI50: 1290 nM
  TGI: > 23200 nM
NCI-H522 lung
  GI50: 154 nM
  TGI: 990 nM
CCRF-CEM leukemia
  GI50: 361 nM
  TGI: > 100000 nM
NCI-H226 lung
  GI50: 296 nM
  TGI: 3090 nM
HOP-92 NSCLC
  GI50: 426 nM
  TGI: 6110 nM
MDA-MB-468 breast
  GI50: 97.9 nM
  TGI: 279 nM
CAKI-1 renal
  GI50: 260 nM
  TGI: 6810 nM
SW-620 colon
  GI50: 245 nM
  TGI: > 77900 nM
NCI/ADR-RES ovarian
  GI50: 1030 nM
  TGI: 21000 nM
U251 CNS
  GI50: 287 nM
  TGI: 4970 nM
DU-145 prostate
  GI50: 407 nM
  TGI: > 34900 nM
COLO 205 colon
  GI50: 255 nM
  TGI: 1480 nM
